Experimental data: PMC11838736 (2025)

Test system: Doxorubicin aptamer (DNA, aptamer) ACCATCTGTGTAAGGGGTAAGGGGTGGT
Assay: electrochemical aptamer-based sensor, square-wave voltammetry (KDM), Hill fit
Conditions: 37 °C; in serum; apparent; immobilised aptamer; 8 devices

COc1cccc2c1C(=O)c1c(O)c3c(c(O)c1C2=O)C[C@@](O)(C(=O)CO)C[C@@H]3O[C@H]1C[C@H](N)[C@H](O)[C@H](C)O1
Kd: 5 µM
